Structures can show the parent of a compound that is named as a salt.

This experiment concerns the target T1, TLR7/NFKb HEK cells (Homo sapiens, UniProt Q9NYK1).
T1 construct: expressed in transfected cells; host or cells: HEK cells (TLR7/NFKb reporter line)
T1 sequence (Q9NYK1 27-1049): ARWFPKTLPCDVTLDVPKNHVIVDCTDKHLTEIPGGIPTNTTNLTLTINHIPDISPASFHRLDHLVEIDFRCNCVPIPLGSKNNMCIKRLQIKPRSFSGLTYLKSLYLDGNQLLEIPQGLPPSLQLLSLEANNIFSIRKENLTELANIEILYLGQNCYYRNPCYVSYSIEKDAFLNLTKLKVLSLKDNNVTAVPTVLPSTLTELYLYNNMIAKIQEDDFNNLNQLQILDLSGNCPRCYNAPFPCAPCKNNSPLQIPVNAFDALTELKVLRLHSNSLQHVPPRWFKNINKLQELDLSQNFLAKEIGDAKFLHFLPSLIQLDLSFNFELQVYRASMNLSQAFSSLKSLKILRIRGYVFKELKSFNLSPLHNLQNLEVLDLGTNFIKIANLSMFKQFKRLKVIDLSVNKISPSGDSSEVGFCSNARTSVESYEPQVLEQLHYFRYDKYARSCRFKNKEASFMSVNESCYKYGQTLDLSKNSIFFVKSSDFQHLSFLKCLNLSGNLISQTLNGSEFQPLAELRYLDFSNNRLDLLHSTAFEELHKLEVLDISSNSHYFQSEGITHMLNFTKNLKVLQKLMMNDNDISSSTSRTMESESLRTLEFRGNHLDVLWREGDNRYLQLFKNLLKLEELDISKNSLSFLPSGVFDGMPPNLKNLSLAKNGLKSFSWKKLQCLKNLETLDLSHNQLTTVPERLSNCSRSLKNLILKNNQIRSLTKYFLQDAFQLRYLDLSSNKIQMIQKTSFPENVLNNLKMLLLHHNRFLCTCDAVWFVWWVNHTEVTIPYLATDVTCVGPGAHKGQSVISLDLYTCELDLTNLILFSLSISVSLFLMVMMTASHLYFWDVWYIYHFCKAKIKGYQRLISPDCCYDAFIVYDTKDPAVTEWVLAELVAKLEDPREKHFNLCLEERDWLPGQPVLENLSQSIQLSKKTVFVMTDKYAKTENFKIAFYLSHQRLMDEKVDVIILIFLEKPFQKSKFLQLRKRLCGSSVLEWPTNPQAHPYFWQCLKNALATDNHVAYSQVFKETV
The experiment is described as follows: HEK Cell Assay (TLR7/NFKb reporter, Steady-Glo luciferase readout). In kind it is cell-based. Conditions: 30 min compound preincubation, then R*48 agonist for 5 hours, read-out: Potency. Summed up:
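Steady-Glo luminescence after 5 h stimulation with R*48 agonist, following 30 min compound preincubation. Assay run in HEK cells carrying a TLR7/NFKb luciferase reporter, plated at 5000 cells/well and grown 24 h at 37° C (10% CO2) before treatment.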

`CCN(CC)CC(=O)NC1CCN(c2ccnc3nccnc23)CC1` [Compound 390, 2-Diethylamino-N-(1-pyrido[2,3-b]pyrazin-8-yl-piperidin-4-yl)-acetamide]: the IC50 was 1000 to 10000 nM.
Under `CNC(=O)[C@@H]1C[C@H](C)CN(c2ccc(C#N)c3nccnc23)C1` (relative stereo) [Compound 541, cis-1-(8-Cyano-quinoxalin-5-yl)-5-methyl-piperidine-3-carboxylic acid methylamide] stands 1000 to 10000 nM.
To `N#Cc1ccc(N2CCC(F)C(N)C2)c2nccnc12` (stereo not drawn) [Compound 524, 8-(3-Amino-4-fluoro-piperidin-1-yl)-quinoxaline-5-carbonitrile hydrochloride] belongs 1000 to 10000 nM; to `C[C@H]1C[C@@H](NC(=O)CN2CCOCC2)CN(c2ccnc3nccnc23)C1` [Compound 110, N-[(3R,5S)-5-methyl-1-[pyrido[2,3-b]pyrazin-8-yl]piperidin-3-yl]-2-(morpholin-4-yl)acetamide], greater than 10000 nM; to `CC(O)C(=O)N[C@@H]1C[C@H](C)CN(c2ccc(C(F)(F)F)c3ncccc23)C1` (stereo partly drawn) [Compound 278, 2-hydroxy-N-[(3R,5S)-5-methyl-1-[8-(trifluoromethyl)quinolin-5-yl]piperidin-3-yl]propanamide], less than 1000 nM.
Under `CCCN1CCN(C[C@H]2CN(c3ccnc4nccnc34)C[C@@H](C)O2)CC1` [Compound 52, (2R,6S)-2-methyl-6-((4-propylpiperazin-1-yl)methyl)-4-(pyrido[2,3-b]pyrazin-8-yl)morpholine] stands less than 1000 nM; under `C[C@H]1C[C@@H](NC(=O)CC(F)(F)F)CN(c2ccc(C#N)c3nccnc23)C1` [Compound 111, N-[(3R,5S)-1-(8-cyanoquinoxalin-5-yl)-5-methylpiperidin-3-yl]-3,3,3-trifluoropropanamide], less than 1000 nM.
Turning to `N#Cc1ccc(N2CCC(C(=O)NCCN3CCC3)CC2)c2cccnc12` [Compound 439, 1-(8-Cyano-quinolin-5-yl)-piperidine-4-carboxylic Acid (2-azetidin-1-yl-ethyl)-amide], the IC50 was less than 1000 nM.
In the case of `C[C@H]1C[C@@H](NC(C)(C)CO)CN(c2ccc(C(F)(F)F)c3nccnc23)C1` [Compound 252, 2-methyl-2-[[(3R,5S)-5-methyl-1-[8-(trifluoromethyl)quinoxalin-5-yl]piperidin-3-yl]amino]propan-1-ol], the IC50 fell in the range of 1000 to 10000 nM.
As for `C[C@H]1C[C@@H](NC(=O)CC2CCCN(C)C2)CN(c2ccc(C(F)F)c3ncccc23)C1` (stereo partly drawn) [Compound 303, N-[(3R,5S)-1-[8-(difluoromethyl)quinolin-5-yl]-5-methylpiperidin-3-yl]-2-(1-methylpiperidin-3-yl)acetamide], the IC50 was less than 1000 nM.
To `C[C@H]1C[C@@H](NC(=O)CN(C)C)CN(c2ccc(Cl)c3ncccc23)C1` [Compound 264, N-[(3R,5S)-1-(8-chloroquinolin-5-yl)-5-methylpiperidin-3-yl]-2-(dimethylamino)acetamide] belongs less than 1000 nM.
Under `COCCN[C@@H]1C[C@H](C)CN(c2ccc(OC)c3nccnc23)C1` [Compound 67, (3R,5S)—N-(2-methoxyethyl)-1-(8-methoxyquinoxalin-5-yl)-5-methylpiperidin-3-amine] stands less than 1000 nM; under `C[C@H]1C[C@@H](NC(=O)[C@H](N)CO)CN(c2ccc(C#N)c3nccnc23)C1` [Compound 106, (2R)-2-amino-N-[(3R,5S)-1-(8-cyanoquinoxalin-5-yl)-5-methylpiperidin-3-yl]-3-hydroxypropanamide], less than 1000 nM; under `CCC(C)CC(=O)N[C@@H]1C[C@H](C)CN(c2ccc(C#N)c3nccnc23)C1` (single isomer, unassigned) [Compound 150], less than 1000 nM.
Under `CN1CCC(CC(=O)NC2CN(c3ccc(C#N)c4nccnc34)CC(F)(F)C2)CC1` (single isomer, unassigned) [Compound 523] stands less than 1000 nM.

Source of the values: patent publication US10947213B1 (Merck Patent GmbH, priority 2015, dated 2021).
